Measurements published in patent publication US20120184542A1, “PYRIDO PYRIMIDINES” (priority 2011, published 2012).

Tests used:
Human DYRK1B = biological target: T1, Human DYRK1B (Homo sapiens, UniProt Q9Y463); assay: DYRK1B Kinase TR-FRET (IMAP-Tb) Assay; type: biochemical; conditions: for IC50: TR-FRET (IMAP-Tb), ATP 70 μM, 37° C. 60 minutes, read-out: Enzyme IC50 (μM) DYRK1B; for inhibition at 10 µM: read-out: % inhibition of DYRK1B at 10 μM test compound concentration
T1 construct: purchased Invitrogen PR8350B (former PV4649)
T1 sequence (Q9Y463 whole entry): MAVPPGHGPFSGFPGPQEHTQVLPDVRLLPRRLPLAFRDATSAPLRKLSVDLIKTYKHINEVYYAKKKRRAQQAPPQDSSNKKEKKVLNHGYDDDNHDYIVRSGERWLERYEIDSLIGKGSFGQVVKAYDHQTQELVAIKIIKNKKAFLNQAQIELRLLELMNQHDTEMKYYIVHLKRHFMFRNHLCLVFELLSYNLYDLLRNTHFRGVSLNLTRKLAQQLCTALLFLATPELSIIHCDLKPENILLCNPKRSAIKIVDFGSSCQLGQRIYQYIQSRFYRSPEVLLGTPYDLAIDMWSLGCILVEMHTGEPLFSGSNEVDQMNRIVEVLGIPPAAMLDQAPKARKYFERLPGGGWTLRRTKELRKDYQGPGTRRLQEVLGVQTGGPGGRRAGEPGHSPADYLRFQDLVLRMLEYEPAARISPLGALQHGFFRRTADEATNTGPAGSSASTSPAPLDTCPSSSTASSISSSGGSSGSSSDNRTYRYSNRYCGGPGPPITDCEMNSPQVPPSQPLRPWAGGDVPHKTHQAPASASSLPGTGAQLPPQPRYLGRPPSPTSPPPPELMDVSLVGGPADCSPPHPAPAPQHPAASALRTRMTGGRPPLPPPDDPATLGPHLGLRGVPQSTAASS

Human DYRK1A = biological target: T2, Human DYRK1A (Homo sapiens, UniProt Q13627); assay: DYRK1A Kinase TR-FRET (IMAP-Tb) Assay; type: biochemical; conditions: for IC50: TR-FRET (IMAP-Tb), ATP 70 μM, 37° C. 60 minutes, read-out: Enzyme IC50 (μM) DYRK1A; for inhibition at 10 µM: read-out: % inhibition of DYRK1A at 10 μM test compound concentration
T2 construct: purchased Invitrogen PV3997
From the text: The kinase TR-FRET (IMAP-Tb) assay uses a fluorescence labeled substrate peptide in the kinase reaction. Upon phosphorylation by the kinase, phosphopeptide is produced, which will be detected by the binding solution provided in IMAP TR-FRET binding kit. After the completion of the kinase reaction, the reaction will be stopped by adding the binding solution containing terbium tracer. This tracer is immobilized on the surface of the IMAP beads, which also contain metal ions on the beads that bind to the phospho-groups of the products. Thus the phosphorylated product of the reaction can enter into close proximity to the tracer, producing resonance energy transfer. Due to the long lifetime of terbium (Tb) fluorescence the detection can be run in time resolved mode, which virtually eliminates fluorescence interference from assay components or compounds.
The TR-FRET signal measurement from this assay, given as an IC50 measurement, is a measure of a test compound's ability to interfere with the phosphorylation of the peptide substrate, that is it inhibits the phosphorylation of the substrate peptide by DYRK1A, and is thus a measure of the test compound's ability to inhibit the activity of DYRK1A.
• 1. Human DYRK1A: from Invitrogen. Part #PV3997 • 2. Substrate Peptide: […] • 3. IMAP TR-FRET IPP Explorer Kit: from Molecular Devices. Part #R8157 • 4. Kinase Assay Buffer (KAB): 10 mM HEPES pH 7.0, 50 mM NaCl, 5 mM MgCl2, 1 mM DTT, 1 mM NaVO4, 200 μg/mL BSA (0.02%) • 5. Assay Plate: Remp polypropylene clear 384-well microplate. […] Detection Plate: Costa black 384-well microplate.
• 1. Transfer 1.5 μL of 20× compound solution to each well of an assay plate. • 2. Add to each well 22.5 μL of KAB Buffer. • 3. Add to each well 3 μL of the solution of DYRK1A and ATP. […] Add to each well 3 μL of the substrate peptide. The assay concentration is 1.0 μM • 5. Incubate the assay plates at 37° C. for 60 minutes. • 6. Add 18 μL of Detection Solution (1:800 diluted Progress bead stock, 1:400 diluted Tb stock, 80% Buffer A, and 20% Buffer B) into each well of detection plates. • 7. Transfer 6 μL of assay solution from the assay plate to the detection plate. • 8. Shake detection plates for 30 minutes. • 9. Read plates in Envision with wavelength set at excitation 340 nm for Tb, emission 490 nm, and […].

For COc1ncc2cc(C(=O)Nc3cc(C(=O)NCc4cccnc4)ccc3Cl)c(=O)[nH]c2n1 [Example 67, 2-Methoxy-7-oxo-7,8-dihydro-pyrido[2,3-d]pyrimidine-6-carboxylic acid {2-chloro-5-[(pyridin-3-ylmethyl)-carbamoyl]-phenyl}-amide], the IC50 (Human DYRK1B) was 0.669 µM and the IC50 (Human DYRK1A) was 0.263 µM.

With COc1ncc2cc(C(=O)Nc3cc(C(=O)NCc4cccc(Cl)c4)ccc3C)c(=O)[nH]c2n1 [Example 62, 2-Methoxy-7-oxo-7,8-dihydro-pyrido[2,3-d]pyrimidine-6-carboxylic acid [5-(3-chloro-benzylcarbamoyl)-2-methyl-phenyl]-amide] the IC50 (Human DYRK1B) was 0.437 µM and the IC50 (Human DYRK1A) was 0.119 µM.

Work on COC(=O)c1ccc(Br)c(NC(=O)c2cc3cnc(OC)nc3[nH]c2=O)c1 [Example 48, 4-Bromo-3-[(2-methoxy-7-oxo-7,8-dihydro-pyrido[2,3-d]pyrimidine-6-carbonyl)-amino]-benzoic acid methyl ester] yielded an IC50 (Human DYRK1B) of 0.217 µM and an IC50 (Human DYRK1A) of 0.205 µM.

For COC(=O)c1ccc(F)c(NC(=O)c2cc3cnc(OC)nc3[nH]c2=O)c1 [Example 43, 4-Fluoro-3-[(2-methoxy-7-oxo-7,8-dihydro-pyrido[2,3-d]pyrimidine-6-carbonyl)-amino]-benzoic acid methyl ester], the inhibition at 10 µM (Human DYRK1B) was 41% and the IC50 (Human DYRK1A) was 9.8 µM.

In the case of C[C@H](NC(=O)c1ccc(Cl)c(NC(=O)c2cc3cnc(N4CCOCC4)nc3[nH]c2=O)c1)c1ccccc1 [Example 157, 2-Morpholin-4-yl-7-oxo-7,8-dihydro-pyrido[2,3-d]pyrimidine-6-carboxylic acid [2-chloro-5-((S)-1-phenyl-ethylcarbamoyl)-phenyl]-amide], the IC50 (Human DYRK1B) is reported as over 10 µM and the IC50 (Human DYRK1A) is reported as over 10 µM.

For COC(=O)c1ccc(Cl)c(NC(=O)c2cc3cnc(N4CCNCC4)nc3[nH]c2=O)c1 [Example 37, 4-Chloro-3-[(7-oxo-2-piperazin-1-yl-7,8-dihydro-pyrido[2,3-d]pyrimidine-6-carbonyl)-amino]-benzoic acid methyl ester], the IC50 (Human DYRK1B) was 0.405 µM and the IC50 (Human DYRK1A) was 0.468 µM.

For CCN(CC)CCOc1ncc2cc(C(=O)Nc3cc(C(=O)OC)ccc3Cl)c(=O)[nH]c2n1 [Example 45, 4-Chloro-3-{[2-(2-diethylamino-ethoxy)-7-oxo-7,8-dihydro-pyrido[2,3-d]pyrimidine-6-carbonyl]amino}-benzoic acid methyl ester], the IC50 (Human DYRK1B) was 0.85 µM and the IC50 (Human DYRK1A) was 0.729 µM.

COC(=O)c1ccc(Cl)c(NC(=O)c2cc3cnc(N4CCOCC4)nc3[nH]c2=O)c1 [Example 33, 4-Chloro-3-[(2-morpholin-4-yl-7-oxo-7,8-dihydro-pyrido[2,3-d]pyrimidine-6-carbonyl)-amino]-benzoic acid methyl ester] was tested, and the IC50 (Human DYRK1B) was 0.128 µM and the IC50 (Human DYRK1A) was 0.095 µM.

With COc1ncc2cc(C(=O)Nc3cc(C(=O)NC(c4ccccc4)C(F)(F)CN)ccc3Cl)c(=O)[nH]c2n1 (stereo not shown) [Example 196, N-(5-(3-amino-2,2-difluoro-1-phenylpropylcarbamoyl)-2-chlorophenyl)-2-methoxy-7-oxo-7,8-dihydropyrido[2,3-d]pyrimidine-6-carboxamide] the IC50 (Human DYRK1B) was 0.339 µM and the IC50 (Human DYRK1A) was 0.175 µM.

O=C(NCc1cccc(Cl)c1)c1cc(NC(=O)c2cc3cnc(N4CCOCC4)nc3[nH]c2=O)c(Cl)cc1F [Example 144, 2-Morpholin-4-yl-7-oxo-7,8-dihydro-pyrido[2,3-d]pyrimidine-6-carboxylic acid [2-chloro-5-(3-chloro-benzylcarbamoyl)-4-fluoro-phenyl]-amide] showed an inhibition at 10 µM (Human DYRK1B) of 23% and an IC50 (Human DYRK1A) of 0.205 µM.

CN1CCN(c2ncc3cc(C(=O)Nc4cc(C(=O)NCc5cc(F)ccc5F)ccc4Cl)c(=O)[nH]c3n2)CC1 [Example 178, 2-(4-Methyl-piperazin-1-yl)-7-oxo-7,8-dihydro-pyrido[2,3-d]pyrimidine-6-carboxylic acid [2-chloro-5-(2,5-difluoro-benzylcarbamoyl)-phenyl]amide] showed an IC50 (Human DYRK1B) of 0.356 µM and an IC50 (Human DYRK1A) of 0.0748 µM.

In the case of COc1ncc2cc(C(=O)Nc3cc(C(=O)NCc4ccncc4)ccc3Cl)c(=O)[nH]c2n1 [Example 68, 2-Methoxy-7-oxo-7,8-dihydro-pyrido[2,3-d]pyrimidine-6-carboxylic acid {2-chloro-5-[(pyridin-4-ylmethyl)-carbamoyl]-phenyl}-amide], the IC50 (Human DYRK1B) is reported as 0.261 µM and the IC50 (Human DYRK1A) is reported as 0.251 µM.

For CCOCCN(CCOCC)c1ncc2cc(C(=O)Nc3cc(C(=O)OC)ccc3Cl)c(=O)[nH]c2n1 [Example 40, 3-({2-[Bis-(2-ethoxy-ethyl)-amino]-7-oxo-7,8-dihydro-pyrido[2,3-d]pyrimidine-6-carbonyl}-amino)-4-chloro-benzoic acid methyl ester], the IC50 (Human DYRK1B) was 0.22 µM and the IC50 (Human DYRK1A) was 0.208 µM.

Compound O=C(NCc1cccc(Cl)c1)c1ccc(Cl)c(NC(=O)c2cc3cnc(N4CCC(O)CC4)nc3[nH]c2=O)c1 [Example 92, 2-(4-Hydroxy-piperidin-1-yl)-7-oxo-7,8-dihydro-pyrido[2,3-d]pyrimidine-6-carboxylic acid [2-chloro-5-(3-chloro-benzylcarbamoyl)-phenyl]-amide] has an IC50 (Human DYRK1B) of 0.035 µM and an IC50 (Human DYRK1A) of 0.0202 µM.

Compound COC(=O)c1ccc(C)c(NC(=O)c2cc3cnc(N4CCOCC4)nc3[nH]c2=O)c1 [Example 29, 4-Methyl-3-[(2-morpholin-4-yl-7-oxo-7,8-dihydro-pyrido[2,3-d]pyrimidine-6-carbonyl)-amino]-benzoic acid methyl ester] has an IC50 (Human DYRK1B) of 0.12 µM and an IC50 (Human DYRK1A) of 0.0859 µM.

For CN(Cc1cccc(Cl)c1)C(=O)c1ccc(Cl)c(NC(=O)c2cc3cnc(N4CCCCC4)nc3[nH]c2=O)c1 [Example 64, 7-oxo-2-piperidin-1-yl-7,8-dihydro-pyrido[2,3-d]pyrimidine-6-carboxylic acid {2-chloro-5-[(3-chloro-benzyl)-methyl-carbamoyl]-phenyl}-amide], the inhibition at 10 µM (Human DYRK1B) was 46.6% and the IC50 (Human DYRK1A) was 0.903 µM.

For CCOCCNc1ncc2cc(C(=O)Nc3cc(C(=O)OC)ccc3Cl)c(=O)[nH]c2n1 [Example 42, 4-Chloro-3-{[2-(2-ethoxy-ethylamino)-7-oxo-7,8-dihydro-pyrido[2,3-d]pyrimidine-6-carbonyl]-amino}-benzoic acid methyl ester], the inhibition at 10 µM (Human DYRK1B) was 39% and the inhibition at 10 µM (Human DYRK1A) was 60%.

COc1ncc2cc(C(=O)Nc3cc(C(=O)NCc4ccc(Cl)cc4)ccc3Cl)c(=O)[nH]c2n1 [Example 46, 2-Methoxy-7-oxo-7,8-dihydro-pyrido[2,3-d]pyrimidine-6-carboxylic acid [2-chloro-5-(4-chloro-benzylcarbamoyl)-phenyl]-amide] gave an IC50 (Human DYRK1B) of 0.192 µM and an IC50 (Human DYRK1A) of 1.16 µM.

For COc1ncc2cc(C(=O)Nc3cc(C(=O)OCc4ccccc4)ccc3Cl)c(=O)[nH]c2n1 [Example 50, 4-Chloro-3-[(2-methoxy-7-oxo-7,8-dihydro-pyrido[2,3-d]pyrimidine-6-carbonyl)-amino]-benzoic acid benzyl ester], the inhibition at 10 µM (Human DYRK1B) was 3% and the inhibition at 10 µM (Human DYRK1A) was 30%.

Compound COc1ncc2cc(C(=O)Nc3cc(C(=O)N(C)Cc4ccccc4)ccc3Cl)c(=O)[nH]c2n1 [Example 60, 2-Methoxy-7-oxo-7,8-dihydro-pyrido[2,3-d]pyrimidine-6-carboxylic acid [5-(benzyl-methyl-carbamoyl)-2-chloro-phenyl]-amide] has an IC50 (Human DYRK1B) of 0.357 µM and an IC50 (Human DYRK1A) of 0.561 µM.
